According to ChEMBL document CHEMBL5604063, “ASAP - DENV-2 NS2B-NS3 protease fluorescence dose response” (2024):
Where “and” joins values, the source holds several entries; their conditions need not be identical. Identical values can stand only once.

Key:
Genome polyprotein [1] = target: T1, Genome polyprotein (dengue virus type 2, UniProt P29990); format: functional, Thailand/16681/1984
Genome polyprotein [2] = target: T1, Genome polyprotein; format: functional, Thailand/16681/1984; remark: listed apart in the source

T1 sequence (P29990 1346-1475 limits assumed): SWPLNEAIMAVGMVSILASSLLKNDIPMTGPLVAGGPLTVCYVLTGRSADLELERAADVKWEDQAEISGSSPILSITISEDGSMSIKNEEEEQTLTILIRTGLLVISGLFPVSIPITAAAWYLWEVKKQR
T1 sequence (P29990 1476-2093 limits assumed): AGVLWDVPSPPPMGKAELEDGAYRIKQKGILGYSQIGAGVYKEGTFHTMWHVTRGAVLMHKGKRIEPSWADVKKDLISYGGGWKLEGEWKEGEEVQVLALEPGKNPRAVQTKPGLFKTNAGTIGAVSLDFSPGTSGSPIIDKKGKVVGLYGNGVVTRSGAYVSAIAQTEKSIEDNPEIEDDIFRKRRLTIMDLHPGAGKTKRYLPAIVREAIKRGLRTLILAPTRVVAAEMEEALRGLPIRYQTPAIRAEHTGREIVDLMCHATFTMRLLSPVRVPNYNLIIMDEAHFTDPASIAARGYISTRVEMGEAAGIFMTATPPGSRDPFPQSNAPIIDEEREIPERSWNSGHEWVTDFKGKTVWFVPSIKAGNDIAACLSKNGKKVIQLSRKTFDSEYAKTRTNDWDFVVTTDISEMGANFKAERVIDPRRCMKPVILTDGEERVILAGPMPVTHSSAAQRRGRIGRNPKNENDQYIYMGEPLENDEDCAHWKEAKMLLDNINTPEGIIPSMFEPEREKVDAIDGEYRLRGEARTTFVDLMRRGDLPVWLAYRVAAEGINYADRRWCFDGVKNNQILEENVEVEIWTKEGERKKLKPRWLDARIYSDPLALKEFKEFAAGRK

SMILES | IC50 (Genome polyprotein [1]) | IC50 (Genome polyprotein [2])
O=C(Nc1cc(Cl)cc([C@H](C#CCO)Nc2ccc(-c3nn[nH]n3)cc2)c1)OCc1ccccc1 | 8.13 µM and 6.72 µM | 12.2 µM
O=C(Nc1cc(Cl)cc(C(=O)NC2(c3nn[nH]n3)CCCC2)c1)OCc1ccccc1 | > 100 µM | > 99.5 µM
C#C[C@H](Nc1cccc(-c2nn[nH]n2)c1)c1cc(Cl)cc(NC(=O)OCc2ccccc2)c1 | 9.28 µM and 8.35 µM | 10.6 µM
Cc1c(C(=O)Nc2cc(F)cc(CN)c2)cc(C2CC2)n1C | > 100 µM | > 99.5 µM
Cc1c(C(=O)Nc2cccc(CN)c2)cc(C2CCC2)n1C | > 100 µM | > 99.5 µM
Cc1c(C(=O)Nc2ccc(CN)cc2)cc(C2CC2)n1C | > 100 µM | > 99.5 µM
CN1C[C@H](c2cccc(CN)c2)[C@@H](c2cc(Cl)cc(NC(=O)OCc3ccccc3)c2)C1 | > 100 µM | > 99.5 µM
O=C(Nc1cc(Cl)cc(C(=O)N[C@H]2CCCC[C@@H]2C(=O)O)c1)OCc1ccccc1 | > 100 µM | > 99.5 µM
Cc1c(C(=O)Nc2cc(CN)ccc2F)cc(C2CC2)n1C | > 100 µM | > 99.5 µM
CNC(=O)[C@H](Nc1cc(Cl)cc(NC(=O)OCc2ccccc2)c1)c1cccc(-c2nn[nH]n2)c1 | 22.2 µM and 18 µM | 45.9 µM and 44 µM
NCc1cccc([C@H](CCCO)Nc2cc(Cl)cc(NC(=O)OCc3ccccc3)c2)c1 | > 100 µM | 85.8 µM
O=C(Nc1cc(Cl)cc([C@H]2C[C@@H]2c2ccc3c(c2)CNC3)c1)OCc1ccccc1 | > 100 µM | > 99.5 µM
CC[C@H](Cc1nnn[nH]1)c1ccc(NC(=O)[C@H]2[C@H]3CCCCC[C@H]3[C@H]2NC(=O)OCc2ccccc2)cc1 | 13 µM and 16.4 µM | 22.9 µM
CCNC(=O)Nc1cc(Cl)cc(C(=O)Nc2cc(CCCN)ccc2F)c1 | > 100 µM | > 99.5 µM
O=C(Nc1cc(Cl)cc(C(=O)Nc2cccc(C3(C(=O)O)CCC3)c2)c1)OCc1ccccc1 | 12.5 µM and 12.8 µM | 24.6 µM
O=C(Nc1cc(Cl)cc(C(=O)Nc2cc(-c3nnn[nH]3)ccc2F)c1)OCc1ccccc1 | 11 µM and 7.48 µM | 15.6 µM
CCc1cc(C(=O)Nc2cccc(-n3nn[nH]c3=O)c2)sc1-c1ccc(Cl)cc1 | 10.5 µM and 12.2 µM | 11.3 µM and 12.9 µM
COC(=O)c1cc(CN)cc([C@@H]2C[C@H]2c2cc(Cl)cc(NC(=O)OCc3ccccc3)c2)c1 | > 100 µM | > 99.5 µM
N#C[C@H](Nc1ccc(-c2nn[nH]n2)cc1)c1cc(Cl)cc(NC(=O)OCc2ccccc2)c1 | 7.23 µM and 13 µM | 10.7 µM
Cc1ccc(-c2nnn[nH]2)cc1NC(=O)c1cc(Cl)cc(NC(=O)OCc2ccccc2)c1 | 9.21 µM and 13.1 µM | 18.4 µM

SMILES | IC50 (Genome polyprotein [1]) | IC50 (Genome polyprotein [2])
NCc1ccc([C@H]2C[C@@H]2c2cc(Cl)cc(NC(=O)OCc3ccccc3)c2)cc1 | > 100 µM | 9.84 µM and 11.1 µM
CCNC(=O)Nc1cc(Cl)cc(C(=O)Nc2cccc(-n3nn[nH]c3=O)c2)c1 | > 100 µM | > 99.5 µM
O=C(O)CCCc1cccc(NC(=O)c2cc(Cl)cc(NC(=O)OCc3ccccc3)c2)c1 | 23.7 µM and 19.7 µM | 37.2 µM
C=CC[C@H](Nc1cccc(-c2nn[nH]n2)c1)c1cc(Cl)cc(NC(=O)OCc2ccccc2)c1 | 6.22 µM and 4.97 µM | 6.97 µM
O=C(Nc1cc(Cl)cc(C(=O)N[C@H](c2nn[nH]n2)C2CCNCC2)c1)OCc1ccccc1 | > 100 µM | > 99.5 µM
O=C(Nc1cc(Cl)cc(/C=C/c2cccc(-n3nn[nH]c3=O)c2)c1)OCc1ccccc1 | 11.5 µM and 8.65 µM | 8.63 µM and 8.5 µM
O=C(Nc1cc(Cl)cc(S(=O)(=O)Nc2cccc(-n3nn[nH]c3=O)c2)c1)OCc1ccccc1 | 16.1 µM and 14.1 µM | 34.3 µM
CNC(=O)[C@H](Nc1cc(Cl)cc(NC(=O)OCc2ccccc2)c1)c1cccc(CN)c1 | > 100 µM | > 99.5 µM
N#C[C@H](Nc1cccc(C(=O)O)c1)c1cc(Cl)cc2[nH]ncc12 | > 100 µM | > 99.5 µM
O=C(O)CCc1cccc(NC(=O)c2cc(Cl)cc(NC(=O)OCc3ccccc3)c2)c1 | 16.4 µM and 19.7 µM | 48.4 µM
O=C(Nc1cc(Cl)cc(C(=O)Nc2ccc3c(c2)C(=O)NC3)c1)OCc1ccccc1 | > 100 µM | > 99.5 µM
N[C@H]1CCc2cc(NC(=O)c3cc(Cl)cc(NC(=O)OCc4ccccc4)c3)ccc21 | > 100 µM | 44.7 µM
O=C(N[C@H]1[C@H]2CCCCC[C@H]2[C@H]1C(=O)Nc1cccc(-n2nn[nH]c2=O)c1)OCc1ccccc1 | 37.9 µM and 54.6 µM | 27.1 µM
COC(=O)c1cc(Cl)cc(S(=O)(=O)Nc2cccc(-c3nnn[nH]3)c2)c1F | > 100 µM | > 99.5 µM
N#C[C@H](Nc1cc(Cl)cc(NC(=O)OCc2ccccc2)c1)c1ccc(-c2nn[nH]n2)cc1 | 6.86 µM and 5.66 µM | 9.45 µM
CNC(=O)C[C@H](Nc1cccc(F)n1)c1cc(Cl)cc(Br)c1 | > 100 µM | > 99.5 µM
COc1c(C(N)=O)cc(Cl)cc1S(=O)(=O)Nc1cccc(-c2nnn[nH]2)c1 | > 100 µM | > 99.5 µM
O=C(Nc1cc(Cl)cc(C(=O)Nc2ccc([C@@H]3C[C@H]3C(=O)O)cc2)c1)OCc1ccccc1 | 9.55 µM and 9.43 µM | 19.5 µM
CCc1cc(C(=O)Nc2cccc(-c3nnn[nH]3)c2)nn1-c1ccccc1 | > 100 µM | > 99.5 µM
